Experimental data taken from US7777070B2, “Acyloxyalkyl carbamate prodrugs of tranexamic acid, methods of synthesis and use” (XenoPort, Inc., priority 2005, dated 2010).
Where two headings read alike, the source gives them in different places. Blank lines part the entries; values can stand above or below the molecule they belong to.

What was measured:
Caco-2 cells [1] = experiment: Caco-2 cellular permeability; conditions: ratio of Papp apical to basolateral / basolateral to apical
Protocol: (§1) For example, passive permeability can be evaluated by examining the flux of a prodrug across a cultured polarized cell monolayer (e.g., Caco-2 cells).
(§2) Caco-2 cells obtained from continuous culture (passage less than 28) were seeded at high density onto Transwell polycarbonate filters. Cells were maintained with DMEM/10% fetal bovine serum, 1 mM nonessential amino acids, and 6 mM L-Gln, 5% CO2/95% O2, at 37° C. until the day of the experiment. Permeability studies were conducted at pH 6.5 apically (in 50 mM MES buffer containing 1 mM CaCl2, 1 mM MgCl2, 150 mM NaCl, 3 mM KCl, 1 mM NaH2PO4, 5 mM glucose) and pH 7.4 basolaterally (in Hanks' balanced salt solution containing 10 mM HEPES) in the presence of efflux pump inhibitors (250 μM MK-571 and 250 μM Verapamil). Inserts were placed in 12 or 24 well plates containing buffer and incubated for 30 min at 37° C. Prodrug (200 μM) was added to the apical or basolateral compartment (donor) and concentrations of prodrug and/or released parent drug in the opposite compartment (receiver) were determined at intervals over 1 hour using LC/MS/MS. Values of apparent permeability (Papp) were calculated using the equation: Papp=Vr(dC/dt)//(ACo) where Vr is the volume of the receiver compartment in mL; dC/dt is the total flux of prodrug and parent drug (μM/sec), determined from the slope of the plot of concentration in the receiver compartment versus time; C0 is the initial concentration of prodrug in μM; and A is the surface area of the membrane in cm^2.

[2] = cited from earlier work
[3] = cited from earlier work; remark: listed apart in the source
[4] = Pharmacokinetics of tranexamic acid after administration of tranexamic acid or prodrug to rats; assay type: in vivo, Sprague-Dawley rats; conditions: for AUC(0-inf) / bioavailability / Cmax / half-life / Tmax / AUC(0-t) / F* (bioavailability of tranexamic acid) / AUCinf / AUCt / T1/2-λ: rat; for bioavailability / F* (bioavailability of tranexamic acid): versus i.v. tranexamic acid AUCinf 22.2 hr·μg/mL; for bioavailability: read-out: F* (bioavailability of tranexamic acid); for half-life: read-out: T1/2-λ (converted)
Protocol: Tranexamic acid or a tranexamic acid prodrug of the present disclosure was administered as an intravenous bolus injection (i.v.), by oral gavage (p.o.), or by intracolonic (i.c.) administration via an indwelling catheter in the ascending colon to groups of four to six adult male Sprague-Dawley rats (weight approximately 250 g). Animals were fasted overnight before the study and for 4 hours post-dosing and were conscious at the time of the experiment. When administered intravenously, tranexamic acid was administered as a solution in water at a dose equivalent to 16 mg (0.1 mmol) of tranexamic acid per kg body weight. Prodrugs were orally or intracolonically administered as a suspension in 0.5% methyl cellulose in 0.1% Tween 80 at a dose equivalent to 16 mg (0.1 mmol) of tranexamic acid per kg body weight. Blood samples (300 μL) were obtained via a jugular vein cannula at intervals over 8 hours after oral dosing. Blood was quenched immediately using methanol and then was frozen at −80° C. until analyzed.
The following procedure was used to prepared blood samples for analysis:
1. Rat blood (100 μL) was collected at different times into K2EDTA tubes, 300 μL of methanol, and the mixture was vortexed to mix the ingredients.
2. Blank rat blood (90 μL) was quenched with 300 μL of methanol. Then ten μL of a standard stock solution (0.04, 0.2, 1, 5, 25, and 100 μg/mL) were added to the tube individually. Then 20 μL of p-chlorophenylalanine (5 μg/mL in 50% methanol) was added to each tube to make up a final calibration standard (0.004, 0.02, 0.1, 0.5, 2.5, and 10 μg/mL). The samples were vortexed and centrifuged at 14,000 rpm for 20 min.
3. To the quenched blood samples were added 20 μL of p-chlorophenylalanine (5 μg/mL in 50% methanol), the samples were vortexed and centrifuged at 14,000 rpm for 20 min.
4. The supernatant was analyzed by LC/MS/MS.
The following method was used for LC/MS/MS Analysis of the prepared blood samples. An API 4000 or 2000 LC/MS/MS spectrometer equipped with Agilent 1100 binary pumps and a CTC HTS-PAL autosampler were used in the analysis. A ThermoHypersil-BetaSil C18, 100×4.6 mm, 5 μm column was used during the analysis. The mobile phase for the analysis of tranexamic acid and prodrug was (A) 0.1% formic acid in water, and (B) 0.1% formic acid in acetonitrile. The gradient condition was: 2% eluent-B to 95% eluent-B for 2.5 min, then to 98% eluent-B to 4.0 min. At 4.1 min, it was returned to 2% eluent-B and maintained at 2% eluent-B till 6.0 min. The flow rate was 1 mL/min. An ESI source was used on the API 4000. The analysis of tranexamic acid was performed in positive ion mode for and negative ion mode was used for analysis of tranexamic acid prodrugs.
The MRM transition for each analyte was optimized using standard solutions. 20 μL of the sample was injected. Non-compartmental analysis was performed using WinNonlin (v.3.1 Professional Version, Pharsight Corporation, Mountain View, Calif.) on individual animal profiles. Summary statistics on major parameter estimates was performed for Cmax (peak observed concentration following dosing), Tmax (time to maximum concentration is the time at which the peak concentration was observed), AUC(0-t) (area under the serum concentration-time curve from time zero to last collection time, estimated using the log-linear trapezoidal method), AUC(0-∞), (area under the serum concentration time curve from time zero to infinity, estimated using the log-linear trapezoidal method to the last collection time with extrapolation to infinity), and t1/2 (terminal half-life).
The oral or intracolonic bioavailability (F) of tranexamic acid was determined by comparing the area under the tranexamic acid concentration vs. time curve (AUC) following oral or intracolonic administration of tranexamic acid or prodrug with the AUC of the tranexamic acid concentration vs. time curve following intravenous administration of tranexamic acid on a dose normalized basis. […]

Caco-2 cells [5] = system: Caco-2 cells
Protocol: as §1, §2

[6] = male, Sprague-Dawley, whole blood, po, tranexamic acid in blood, dose equivalent to 16 mg/kg, mean (SD)
[7] = male, Sprague-Dawley, whole blood, tranexamic acid in blood, i.c., dose equivalent to 16 mg/kg, mean (SD)
[8] = tranexamic acid in blood, i.c., dose equivalent to 16 mg/kg, mean (SD)
[9] = tranexamic acid in blood, p.o., dose equivalent to 16 mg/kg, mean (SD)

Ratio A-B/B-A (Caco-2 cells [1]): 2.9
Compound: CCCCC(=O)OC(OC(=O)NC[C@H]1CC[C@H](C(=O)O)CC1)C(C)C (relative stereo) [Compound 42, trans-4-{[1-(Pentanoyloxy)-2-methylpropoxycarbonyl]aminomethyl}-Cyclohexanecarboxylic Acid]

Ratio A-B/B-A (Caco-2 cells [1]): 3.1
Compound: CC(C)C(OC(=O)NC[C@H]1CC[C@H](C(=O)O)CC1)OC(=O)C1CCCCC1 (relative stereo) [Compound 48, trans-4-{[1-(Cyclohexylcarbonyloxy)-2-methylpropoxycarbonyl]aminomethyl}-Cyclohexanecarboxylic Acid]

Ratio A-B/B-A (Caco-2 cells [1]): 2.9
Compound: CC(C)C(OC(=O)NC[C@H]1CC[C@H](C(=O)O)CC1)OC(=O)c1ccccc1 (relative stereo) [Compound 49, trans-4-{[1-(Benzoyloxy)-2-methylpropoxycarbonyl]aminomethyl}-Cyclohexanecarboxylic Acid]

Ratio A-B/B-A (Caco-2 cells [1]): 5.2
Compound: CC(C)CC(=O)OC(C)OC(=O)NC[C@H]1CC[C@H](C(=O)O)CC1 (single isomer, unassigned) [Compound 19, trans-4-{[1-(3-Methylbutanoyloxy)ethoxycarbonyl]aminomethyl}-Cyclohexanecarboxylic Acid]

Ratio A-B/B-A (Caco-2 cells [1]): 4.5
Compound: CC(OC(=O)NC[C@H]1CC[C@H](C(=O)O)CC1)OC(=O)c1ccccc1 (single isomer, unassigned) [Compound 23, trans-4-{[1-(Benzoyloxy)ethoxycarbonyl]aminomethyl}-Cyclohexanecarboxylic Acid]

Ratio A-B/B-A (Caco-2 cells [1]): 2.2
Compound: CC(C)C(=O)OC(OC(=O)NC[C@H]1CC[C@H](C(=O)O)CC1)C(C)C (single isomer, unassigned) [Compound 44, trans-4-{[1-(2-Methylpropanoyloxy)-2-methylpropoxycarbonyl]aminomethyl}-Cyclohexanecarboxylic Acid]

Ratio A-B/B-A (Caco-2 cells [5]): 3.4
Compound: CC(OC(=O)NC[C@H]1CC[C@H](C(=O)[O-])CC1)OC(=O)C(C)C.[Na+] (stereo partly drawn) [Compound 14, Sodium trans-4-{[1-(2-Methylpropanoyloxy)ethoxycarbonyl]-aminomethyl}-Cyclohexanecarboxylate]

Ratio A-B/B-A (Caco-2 cells [1]): 6.1
Compound: CC(C)C(=O)O[C@H](C)OC(=O)NC[C@H]1CC[C@H](C(=O)O)CC1 [Compound 15, (+)-trans-4-({[(S)-1-(2-Methylpropanoyloxy)ethoxy]carbonylamino}methyl)-Cyclohexanecarboxylic Acid]

Ratio A-B/B-A (Caco-2 cells [1]): 4.0
Compound: CC(C)C(=O)O[C@@H](C)OC(=O)NC[C@H]1CC[C@H](C(=O)O)CC1 [Compound 17, (−)-trans-4-({[(1R)-1-(2-Methylpropanoyloxy)ethoxy]carbonylamino}methyl)-Cyclohexanecarboxylic Acid]

Second part, the molecule before the results:

Compound: CCCC(=O)OC(C)OC(=O)NC[C@H]1CC[C@H](C(=O)O)CC1 (relative stereo) [Compound 10, trans-4-{[1-(Butanoyloxy)ethoxycarbonyl]aminomethyl}-Cyclohexanecarboxylic Acid]
Ratio A-B/B-A (Caco-2 cells [1]): 4.9

Compound: CCCC(OC(=O)NC[C@H]1CC[C@H](C(=O)O)CC1)OC(=O)C(C)C (relative stereo) [Compound 36, trans-4-{[1-(2-Methylpropanoyloxy)butoxycarbonyl]aminomethyl}-Cyclohexanecarboxylic Acid]
Ratio A-B/B-A (Caco-2 cells [1]): 4.5

Compound: CCOC(=O)OC(C)OC(=O)[C@H]1CC[C@H](CN)CC1 (relative stereo) [Kabi 2161, 1-(ethoxycarbonyl)oxyethyl trans-4-(aminomethyl)-cyclohexanecarboxylate]
oral bioavailability of tranexamic acid from prodrug ([2]; human patients, oral): markedly improved
effect on menstrual blood loss ([3]; women suffering from idiopathic menorrhagia): effective in reducing menstrual blood loss

Compound: NC[C@H]1CC[C@H](C(=O)O)CC1 [Compound 1, trans-4-(aminomethyl)-cyclohexanecarboxylic acid, reference compound]
AUC(0-inf) ([4]; male, Sprague-Dawley, whole blood, iv, intravenously administered tranexamic acid, 16 mg/kg): 22200 ng·h/mL
bioavailability ([4]; male, Sprague-Dawley, whole blood, other: intracolonic, 16 mg/kg, i.c., mean (SD)): 5%
bioavailability ([4]; male, Sprague-Dawley, whole blood, po, 16 mg/kg, p.o., mean (SD)): 37%
Cmax ([4]; male, Sprague-Dawley, whole blood, po, tranexamic acid in blood, p.o., dose equivalent to 16 mg tranexamic acid per kg, mean (SD), read-out: Cmax): 2060 ng/mL
half-life ([4]; male, Sprague-Dawley, whole blood, po, tranexamic acid in blood, p.o., dose equivalent to 16 mg/kg, mean (SD)): 1.9 h
Tmax ([4]; male, Sprague-Dawley, whole blood, po, tranexamic acid in blood, p.o., dose equivalent to 16 mg/kg, mean (SD), read-out: Tmax): 1.1 h
AUC(0-inf) [4, 6]: 7800 ng·h/mL
AUC(0-t) [4, 6]: 7300 ng·h/mL
Cmax ([4]; male, Sprague-Dawley, whole blood, tranexamic acid in blood, i.c. (intracolonic), dose equivalent to 16 mg/kg, mean (SD), read-out: Cmax): 220 ng/mL
AUC(0-inf) [4, 7]: 800 ng·h/mL
AUC(0-t) [4, 7]: 600 ng·h/mL
half-life [4, 7]: 1.7 h
Tmax ([4]; male, Sprague-Dawley, whole blood, tranexamic acid in blood, i.c., dose equivalent to 16 mg/kg, mean (SD), read-out: Tmax): 3.1 h
absorption following rectal administration ([2]; rectal administration in humans (Almer et al.)): poorly absorbed
oral bioavailability ([2]; tranexamic acid, oral): ~30%
terminal elimination half-life ([2]; tranexamic acid): ~2 h
reduction of menstrual blood loss ([3]; women with menorrhagia): ~50%
Ratio A-B/B-A (Caco-2 cells [1]): 1.3

Compound: CC(C)C(=O)OCOC(=O)NC[C@H]1CC[C@H](C(=O)O)CC1 [Compound 4, trans-4-{[(2-Methylpropanoyloxy)methoxycarbonyl]aminomethyl}-Cyclohexanecarboxylic Acid]
Ratio A-B/B-A (Caco-2 cells [1]): 7.7

Compound: O=C(NC[C@H]1CC[C@H](C(=O)O)CC1)OCOC(=O)c1ccccc1 [Compound 7, trans-4-{[(Benzoyloxy)methoxycarbonyl]aminomethyl}-Cyclohexanecarboxylic Acid]
Ratio A-B/B-A (Caco-2 cells [1]): 4.2

Compound: CC(OC(=O)NC[C@H]1CC[C@H](C(=O)O)CC1)OC(=O)C(C)C (stereo partly drawn) [Compound 13, trans-4-{[1-(2-Methylpropanoyloxy)ethoxycarbonyl]-aminomethyl}-Cyclohexanecarboxylic Acid]
F* (bioavailability of tranexamic acid) ([4]; i.c., mean (SD)): 98 (10) %
levels of prodrug following oral gavage administration ([4]; intact prodrug in blood, oral gavage, rat (FIG. 2)): below the level of detection
F* (bioavailability of tranexamic acid) ([4]; p.o., mean (SD)): 73 (9) %
Cmax ([4]; tranexamic acid in blood, i.c. (intracolonic), dose equivalent to 16 mg/kg, mean (SD)): 7.82 (5.2) μg/mL
AUCinf [4, 8]: 21.8 µg·h/mL
AUCt [4, 8]: 21.5 (2.3) hr · μg/mL
T1/2-λ [4, 8]: 4.2 (0.8) h
Tmax [4, 8]: 0.5 (0.1) h
Cmax ([4]; tranexamic acid in blood, p.o., dose equivalent to 16 mg tranexamic acid per kg, mean (SD)): 5.64 (0.58) μg/mL
AUCinf [4, 9]: 17.1 (2.0) hr · μg/mL
AUCt [4, 9]: 15.7 (2.0) hr · μg/mL
T1/2-λ [4, 9]: 2.2 (0.2) h
Tmax [4, 9]: 0.8 (0.3) h
Ratio A-B/B-A (Caco-2 cells [1]): 4.8
